Results reported in US20050226943A1, “Extract of sophora flavescens flavonoids and uses thereof” (priority 2004, published 2005).

Assays:
[1] = system: IL1-β; experiment: Inhibition of LPS-induced IL1-β in normal human PBMC (ELISA); format: cell-based; conditions: for IL-1β: LPS-stimulated PBMC supernatant; for IL-1βInhibition Ratio (%): LPS-stimulated PBMC
Text: (§1) Materials: • 1) Cell: PBMC (Peripheral Blood […]) • 2) Drugs: Sophora flavescens flavonoids extract and Kurarinone (Exp. 1) • 3) Positive control: Dexamethason (DEX) • 4) Reagents: Ficoll-Paque Plus (Amersham Bioscience), LPS and dexamethason (CalBiochem.), TNFa ELISA (Enzyme Linked Immunosorbent Assay) Kit and IL1-β ELISA Kit (Jingmei Bioengineer Technology), DMSO (Dimethylsulfoxide) (Sigma)
(§2) a. PBMC cells are isolated from fresh blood by using of Ficoll-Paque Plus reagent according to the protocol that the manufacturer recommends. Cells are suspended in RPMI 1640 media containing 10% FBS. 100 μl of 1×10^5 cells/ml is seeded in each well of 96 well plate, 1×10^4 cells total in each well and three wells for each reaction.
(§3) b. Samples are added into cells (final concentrations are 10, 30, 100 ug/ml, respectively. Sample volume that is added into each well is 10 μl). Final concentration of the positive control, dexamethason is 10 μM. 10 μl of media is added into the cells as a negative control. Then the plate is incubated in 37° C., 5% CO2 incubator for 15 minutes, 10 μl of 100 μg/ml LPS was added to each well except for negative controls. Incubate in 37° C., 5% CO2 incubator overnight.
(§4) c. Spin the plate at 1000 rpm for 15 minutes, transfer supernatant from each well to a new plate, measure the concentrations of TNFα and IL1-β by using assay kits. [formula]

[2] = system: TNFα; experiment: Inhibition of LPS-induced TNFα in normal human PBMC (ELISA); format: cell-based; conditions: for TNFa: LPS-stimulated PBMC supernatant; for TNFa Inhibition Ratio (%): LPS-stimulated PBMC
Text: as §1, §2, §3, §4

Structure (SMILES)	IL-1β ([1]; sample 10 μg/ml)	IL-1β ([1]; sample 30 μg/ml)	IL-1β ([1]; sample 100 μg/ml)	IL-1βInhibition Ratio (%) ([1]; sample 10 μg/ml)	IL-1βInhibition Ratio (%) ([1]; sample 30 μg/ml)	IL-1βInhibition Ratio (%) ([1]; sample 100 μg/ml)	TNFa ([2]; sample 10 μg/ml)	TNFa ([2]; sample 30 μg/ml)	TNFa ([2]; sample 100 μg/ml)	TNFa Inhibition Ratio (%) ([2]; sample 10 μg/ml)	TNFa Inhibition Ratio (%) ([2]; sample 30 μg/ml)	TNFa Inhibition Ratio (%) ([2]; sample 100 μg/ml)	IL-1β ([1]; positive control 10 uM)	IL-1βInhibition Ratio (%) ([1]; positive control 10 uM)	TNFa ([2]; positive control 10 uM)	TNFa Inhibition Ratio (%) ([2]; positive control 10 uM)
C=C(C)[C@H](CC=C(C)C)Cc1c(O)cc(OC)c2c1O[C@H](c1ccc(O)cc1O)CC2=O [Kurarinone, 4H-1-Benzopyran-4-one, 2-(2,4-dihydroxyphenyl)-2,3-dihydro-7-hydroxy-5-methoxy-8-[5-methyl-2-(1-methylethenyl)-4-hexenyl]-]	129.8 ± 8.4 pg/mL	80.5 ± 3.7 pg/mL	3.1 ± 0.3 pg/mL	62.4 ± 4.2%	75.0 ± 4.1%	99.0 ± 0.5%	92.2 ± 2.7 pg/mL	39.5 ± 1.5 pg/mL	2.1 ± 0.3 pg/mL	52.5 ± 4.2%	78.5 ± 4.1%	98.8 ± 2.1%				
C[C@@H]1C[C@H]2[C@@H]3CCC4=CC(=O)C=C[C@]4(C)[C@@]3(F)[C@@H](O)C[C@]2(C)[C@@]1(O)C(=O)CO [DEX, Dexamethason, reference compound]													275.6 ± 5.3 pg/mL	72.9 ± 1.6%	120.9 ± 3.4 pg/mL	61.3 ± 1.9%
